Reference: patent publication US20250034173A1, “PYRIDO[4,3-D]PYRIMIDINE COMPOUNDS” (PFIZER INC., priority 2023, published 2025)

Columns and labels:
[1] = molecular target: KRAS Wild Type (Homo sapiens (Human), UniProt P01116); test: SPR binding affinity and kinetics, GTPγS-loaded KRAS Wild Type; conditions: GTPγS loaded protein, geomean
Text: (§1) No additional regeneration was used.
(§2) Compound dissociation was monitored for at least 3600 seconds. […] No additional regeneration was used.
(§3) The adequateness of the fit was judged by c2 values and the randomness of residue distribution.

[2] = molecular target: KRAS G12D (Homo sapiens (Human), UniProt P01116, G12D); test: SPR binding affinity and kinetics, GTPγS-loaded KRAS G12D; conditions: GTPγS loaded protein, geomean
Text: as §1, §2, §3

[3] = molecular target: KRAS G12C (Homo sapiens (Human), UniProt P01116, G12C); test: SPR binding affinity and kinetics, GTPγS-loaded KRAS G12C; conditions: GTPγS loaded protein, geomean
Text: as §1, §2, §3

[4] = molecular target: KRAS G12V (Homo sapiens (Human), UniProt P01116, G12V); test: SPR binding affinity and kinetics, GTPγS-loaded KRAS G12V; conditions: GTPγS loaded protein, geomean
Text: as §1, §2, §3

[5] = tested on: H358 (non-small cell lung cancer cell line); test: KRAS Cell Titer Glo (CTG) cell proliferation assay, H358; assay type: cell-based; conditions: Homo sapiens, NCI-H358, 168 h; H358 cells, 7-day CTG, geomean IC50
Text: (§4) The CellTiter-Glo® (CTG) Luminescent Cell Viability Assay is a homogeneous method of determining the number of viable cells in culture based on quantitation of the ATP present, an indicator of metabolically active cells. The CTG is designed for use with multi-well formats, making it ideal for automated high-throughput screening (HTS), cell proliferation and cytotoxicity assays. The homogeneous assay procedure involves adding the single reagent (CellTiter-Glo® Reagent) directly to cells cultured in serum-supplemented medium. Cell washing, removal of medium and multiple pipetting steps are not required. The system detects as few as 15 cells per well in a 384-well format in 10 minutes after adding reagent and mixing.
(§5) Cells are grown in humidified 5% CO2 incubator at 37° C. using the culture conditions outlined below. All cell culture media reagents were purchased from Gibco. Cell lines purchased from ATCC: H358 (non-small cell lung cancer cell line), SW620 (colorectal cancer cell line), PANC08.13 (RPM11640+10% FBS+10 units/mL Insulin, pancreatic cancer cell line). Test and control compounds are dispensed as nanoliter drops according to desired final concentrations in 0.1% DMSO using Echo Acoustic Dispenser onto 384 assay plates (Corning, Cat #3764) prior to cell seeding. Cells were seeded in 40 μL volume per well at the following cell densities (cells per well): H358 (300), SW620 (750), PANC 08.13 (600). Cells are incubated in the presence of compound for 7-days. Viability is determined on Day 7 using CellTiter-Glo® (CTG) Luminescent Cell Viability Assay (Promega). CTG is added to a […] per well and incubated at room temperature for 15 minutes before luminescence is captured using an EnVision Reader with LUM384 US protocol. Data is analyzed using Activity Base to determine compound response and will be represented either as a percent effect (PCTEFF) or percent control (PCTOCTL) as described: Zero percent effect control (ZPE) (Negative control)—100% DMSO. Hundred percent effect (HPE) (Positive control)—1 uM Trametinib (GSK1120212, MEK inhibitor) (4 nl of 10 mM and 36 nl of DMSO per well). The following equations/nomenclature are used (% Effect; PCTEFF) and (% of Control; PCTOCTL): PCTEFF: 100*(Raw_Data_Value−HPE/ZPE−HPE), PCTOCTL: 100*Raw_Data_Value/User_Defined_Array), where the User_Defined_Array is either summarized HPE or ZPE.
(§6) Cells with “nd” indicate compound not tested in that particular assay at time of writing. It is to be understood that the geomean IC50 data may change slightly over time with increasing repeat data (ie: increasing n #).

[6] = tested on: SW620 (colorectal cancer cell line); test: KRAS Cell Titer Glo (CTG) cell proliferation assay, SW620; assay type: cell-based; conditions: Homo sapiens, SW-620, 168 h; SW620 cells, 7-day CTG, geomean IC50
Text: as §4, §5, §6

[7] = tested on: PANC08.13 (pancreatic cancer cell line); test: KRAS Cell Titer Glo (CTG) cell proliferation assay, PANC08.13; assay type: cell-based; conditions: Homo sapiens, PANC-08-13, 168 h; PANC08.13 cells, 7-day CTG, geomean IC50
Text: as §4, §5, §6

Sequence of KRAS G12V (P01116 other isoform, or with tags, fused parts or gaps G12V): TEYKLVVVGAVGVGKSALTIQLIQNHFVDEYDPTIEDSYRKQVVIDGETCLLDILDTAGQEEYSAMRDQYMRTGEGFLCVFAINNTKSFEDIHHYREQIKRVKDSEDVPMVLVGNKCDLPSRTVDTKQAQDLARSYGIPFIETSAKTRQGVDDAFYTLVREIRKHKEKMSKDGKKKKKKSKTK
Sequence of KRAS Wild Type (P01116 other isoform, or with tags, fused parts or gaps): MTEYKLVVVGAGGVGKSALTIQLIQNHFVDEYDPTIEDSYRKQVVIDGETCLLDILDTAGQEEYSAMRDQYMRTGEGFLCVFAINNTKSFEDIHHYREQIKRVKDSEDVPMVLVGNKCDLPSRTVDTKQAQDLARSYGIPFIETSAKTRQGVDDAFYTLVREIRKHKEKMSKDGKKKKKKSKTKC
Sequence of KRAS G12D (P01116 other isoform, or with tags, fused parts or gaps G12D): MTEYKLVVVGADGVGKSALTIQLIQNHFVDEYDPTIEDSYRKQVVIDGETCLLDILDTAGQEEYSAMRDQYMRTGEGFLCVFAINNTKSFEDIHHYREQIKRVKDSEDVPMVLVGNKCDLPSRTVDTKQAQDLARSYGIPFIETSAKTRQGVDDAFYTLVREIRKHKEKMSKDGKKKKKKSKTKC
Sequence of KRAS G12C (P01116 other isoform, or with tags, fused parts or gaps G12C): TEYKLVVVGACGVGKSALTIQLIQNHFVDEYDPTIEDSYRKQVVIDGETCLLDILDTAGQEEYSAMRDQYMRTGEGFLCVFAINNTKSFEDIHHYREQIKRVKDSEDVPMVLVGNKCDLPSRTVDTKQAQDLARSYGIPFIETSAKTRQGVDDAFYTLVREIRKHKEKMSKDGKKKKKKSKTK

| SMILES | Kd [1] | Kd [2] | Kd [3] | Kd [4] | IC50 [5] | IC50 [6] | IC50 [7] |
| --- | --- | --- | --- | --- | --- | --- | --- |
| C=C1CN2CCC[C@@]2(COc2nc3c4c(nc(-c5c([C@H]6C[C@H]6C)c(Cl)cc6[nH]ncc56)c(F)c4n2)OC[C@@H]2COCCCN32)C1 (single isomer, unassigned) [Example 31, (8aS)-5-{6-chloro-5-[(1S*,2R*)-2-methylcyclopropyl]-1H-indazol-4-yl}-4-fluoro-2-{[(7aS)-2-methylidenetetrahydro-1H-pyrrolizin-7a(5H)-yl]methoxy}-8a,9,12,13-tetrahydro-8H,11H-7,10-dioxa-1,3,6,13a-tetraazanaphtho[1,8-ab]heptalene] | 10 nM | 6 nM | 7 nM | 5 nM | 54 nM | 115 nM | 11 nM |
| C=C1CN2CCC[C@@]2(COc2nc3c4c(nc(-c5c([C@@H]6C[C@H]6C)c(Cl)cc6[nH]ncc56)c(F)c4n2)OC[C@@H]2COCCCN32)C1 (single isomer, unassigned) [Example 51, (8aS)-5-{6-chloro-5-[(1R*,2R*)-2-methylcyclopropyl]-1H-indazol-4-yl}-4-fluoro-2-{[(7aS)-2-methylidenetetrahydro-1H-pyrrolizin-7a(5H)-yl]methoxy}-8a,9,12,13-tetrahydro-8H,11H-7,10-dioxa-1,3,6,13a-tetraazanaphtho[1,8-ab]heptalene] | 12 nM | 6 nM | 8 nM | 7 nM | 27 nM | 40 nM | 10 nM |
| C=C1CN2CCC[C@@]2(COc2nc3c4c(nc(-c5c6c(cc7[nH]ncc57)CCC[C@H]6OC)c(F)c4n2)OC[C@@H]2COCCCN32)C1 (single isomer, unassigned) [Example 56, (8aS)-4-fluoro-5-[(5R*)-5-methoxy-5,6,7,8-tetrahydro-1H-benzo[f]indazol-4-yl]-2-{[(7aS)-2-methylidenetetrahydro-1H-pyrrolizin-7a(5H)-yl]methoxy}-8a,9,12,13-tetrahydro-8H,11H-7,10-dioxa-1,3,6,13a-tetraazanaphtho[1,8-ab]heptalene] | 23 nM | 34 nM | 10 nM | 23 nM | 172 nM | 63 nM | 135 nM |
| C=C1CN2CCC[C@@]2(COc2nc3c4c(nc(-c5c(C)c(Cl)cc6[nH]ncc56)c(F)c4n2)OC[C@@H]2COCCCN32)C1 [Example 7, (8aS)-5-(6-chloro-5-methyl-1H-indazol-4-yl)-4-fluoro-2-{[(7aS)-2-methylidenetetrahydro-1H-pyrrolizin-7a(5H)-yl]methoxy}-8a,9,12,13-tetrahydro-8H,11H-7,10-dioxa-1,3,6,13a-tetraazanaphtho[1,8-ab]heptalene] | 34 nM | 28 nM | 15 nM | 24 nM | 173 nM | 139 nM | 22 nM |
| C=C1CN2CCC[C@@]2(COc2nc3c4c(nc(-c5c(Cl)c(C)cc6[nH]ncc56)c(F)c4n2)OC[C@@H]2COCCCN32)C1 [Example 8] | 117 nM | 141 nM | 176 nM | 105 nM | 263 nM | 294 nM | 48 nM |
| Fc1c(-c2c(C3CC3)c(Cl)cc3[nH]ncc23)nc2c3c(nc(OC[C@@]45CCCN4CC4(CC4)C5)nc13)N1CCCOC[C@H]1CO2 [Example 18, (8aS)-2-{[(7′aS)-dihydro-1′H,3′H-spiro[cyclopropane-1,2′-pyrrolizin]-7′a(5′H)-yl]methoxy}-5-(6-chloro-5-cyclopropyl-1H-indazol-4-yl)-4-fluoro-8a,9,12,13-tetrahydro-8H,11H-7,10-dioxa-1,3,6,13a-tetraazanaphtho[1,8-ab]heptalene] | 61 nM | 34 nM | 64 nM | 61 nM | 304 nM | 479 nM | 68 nM |

The next molecules have a lower Kd [1] than those just listed; values first:

| Kd [1] | Kd [2] | Kd [3] | Kd [4] | IC50 [5] | IC50 [6] | IC50 [7] | SMILES |
| --- | --- | --- | --- | --- | --- | --- | --- |
| 3 nM | 1 nM | 3 nM | 2 nM | 19 nM | 32 nM | 20 nM | C=C1CN2CC[C@@H](O)[C@@]2(COc2nc3c4c(nc(-c5c(C6CC6)c(Cl)cc6[nH]ncc56)c(F)c4n2)OC[C@@H]2COCCCN32)C1 (relative stereo) [Example 45, (1R,7aS*)-7a-({[(8aS)-5-(6-chloro-5-cyclopropyl-1H-indazol-4-yl)-4-fluoro-8a,9,12,13-tetrahydro-8H,11H-7,10-dioxa-1,3,6,13a-tetraazanaphtho[1,8-ab]heptalen-2-yl]oxy}methyl)-6-methylidenehexahydro-1H-pyrrolizin-1-ol] |
| 4 nM | 2 nM | 3 nM | 4 nM | 51 nM | 102 nM | 4 nM | C=C1CN2CCC[C@@]2(COc2nc3c4c(nc(-c5c([C@@H]6C[C@@H]6C)c(Cl)cc6[nH]ncc56)c(F)c4n2)OC[C@@H]2COCCCN32)C1 (single isomer, unassigned) [Example 30, (8aS)-5-{6-chloro-5-[(1R*,2S*)-2-methylcyclopropyl]-1H-indazol-4-yl}-4-fluoro-2-{[(7aS)-2-methylidenetetrahydro-1H-pyrrolizin-7a(5H)-yl]methoxy}-8a,9,12,13-tetrahydro-8H,11H-7,10-dioxa-1,3,6,13a-tetraazanaphtho[1,8-ab]heptalene] |
| 8 nM | 5 nM | 9 nM | 7 nM | 80 nM | 30 nM | 13 nM | C=C1CN2CC(F)C[C@@]2(COc2nc3c4c(nc(-c5c(C6CC6)c(Cl)cc6[nH]ncc56)c(F)c4n2)OC[C@@H]2COCCCN32)C1 (stereo partly drawn) [Example 14, (8aS)-5-(6-chloro-5-cyclopropyl-1H-indazol-4-yl)-4-fluoro-2-{[(2R,7aR)-2-fluoro-6-methylidenetetrahydro-1H-pyrrolizin-7a(5H)-yl]methoxy}-8a,9,12,13-tetrahydro-8H,11H-7,10-dioxa-1,3,6,13a-tetraazanaphtho[1,8-ab]heptalene] |
| 4 nM | 2 nM | 5 nM | 4 nM | 30 nM | 31 nM | 3 nM | F/C=C1/CN2CCC[C@@]2(COc2nc3c4c(nc(-c5c(C6CC6)c(Cl)cc6[nH]ncc56)c(F)c4n2)OC[C@@H]2COCCCN32)C1 [Example 15, (8aS)-5-(6-chloro-5-cyclopropyl-1H-indazol-4-yl)-4-fluoro-2-{[(2E,7aS)-2-(fluoromethylidene)tetrahydro-1H-pyrrolizin-7a(5H)-yl]methoxy}-8a,9,12,13-tetrahydro-8H,11H-7,10-dioxa-1,3,6,13a-tetraazanaphtho[1,8-ab]heptalene] |
| 5 nM | 3 nM | 5 nM | 4 nM | 80 nM | 190 nM | 31 nM | C=C1CN2C[C@@H](O)C[C@@]2(COc2nc3c4c(nc(-c5c(C6CC6)c(Cl)cc6[nH]ncc56)c(F)c4n2)OC[C@@H]2COCCCN32)C1 [Example 17, (2S,7aR)-7a-({[(8aS)-5-(6-chloro-5-cyclopropyl-1H-indazol-4-yl)-4-fluoro-8a,9,12,13-tetrahydro-8H,11H-7,10-dioxa-1,3,6,13a-tetraazanaphtho[1,8-ab]heptalen-2-yl]oxy}methyl)-6-methylidenehexahydro-1H-pyrrolizin-2-ol] |
